Results as given in article PMC4279406, “Simultaneous targeting of PI3Kδ and a PI3Kδ-dependent MEK1/2-Erk1/2 pathway for therapy in pediatric B-cell acute lymphoblastic leukemia” (Oncotarget, 2014).

Columns and labels:
Format in all cases: cell-based, human
Raji cells = assay: Signaling by Western blot
Protocol: (§1) Raji and SU-DHL-6 cells were treated with X-370 for 1 h (left panel) or treated with 0.5 μM X-370 for indicated times (middle panel). Right panel, Raji cells were incubated in fresh medium following treatment with 0.5 μM X-370 for 1 h. Indicated proteins were detected. (B) Raji-R (the rituximab-resistant derivatives of Raji cells) cells were resistant to X-370. The activity of X-370 on the proliferation of Raji parent and Raji-R cells was determined by CCK-8 assay as described in the methods section. (C) X-370 blocked phosphorylation of Akt but not Erk1/2 in Raji-R cells. Raji-R cells were treated with X-370 for 1h and indicated proteins were detected. Data shown are representative from three independent experiments.
(§2) Figure 5 Inhibition of Erk1/2 phosphorylation by X-370 contributed to its antiproliferative activity (A-C) X-370 inhibited Erk1/2 phosphorylation via PI3K-PDK1-MEK1/2 cascade but not the PI3K-Gab1 positive feedback loop. (A) Raji and SU-DHL-6 cells were exposed to 1 μM X370 for 3 h and protein fraction from cellular membrane was separated using Native Membrane Protein Extraction Kit and probed. WCL: whole cell lysate. (B) Inhibition of PDK1 or MEK1/2 abrogated Erk1/2 phosphorylation. Cells were treated with pharmacological inhibitors of Raf (AZ 628, PLX4032), MEK1/2 (AZD6244), p90RSK (BI-D1870), PI3Kδ (X-370), PDK1 (BX-912), Akt (MK-2206), mTOR (AZD8055) or mTORC1 (Rapamycin) respectively and indicated proteins were detected. (C) X-370 disrupted the association between PDK1 and MEK1/2. Raji cells were treated with 1 μM X370 for 1 h and cell lysates were immunoprecipitated with anti-PDK1 antibody and indicated proteins were detected. WCL: whole cell lysate. (D-F) Inhibition of Erk1/2 phosphorylation was required for the anti-proliferative activity of X-370. (D) Raji cells ectopically expressing a constitutively activated phospho-mimic MEK1 mutant (MEK1 S202D/S204D or MEK DD) were incubated with X-370 or AZD6244 for 1 h and then subjected to Western blot. (E) Raji and Raji MEK DD cells were treated with X-370 for 72 h and cell proliferation was detected by CCK-8 assay. (F) Raji MEK DD cells were treated with X-370 and AZD6244 and cell proliferation was detected by CCK-8 assay. Data were show as mean ± SD of three independent experiments. *: p < 0.05 determined by t-tests at each data point. […]
(§3) Cells were treated as indicated conditions and then subjected to lysate to perform standard Western blot as described previously1. Briefly, whole-cell lysates and SDS-loading buffer diluted cell fractions were analyzed on SDS-PAGE gels. Transfer to nitrocellulose membranes, nonfat milk blocking, probing with indicated primary antibodies and the corresponding HRP-conjugated second antibodies.
(§4) Chemiluminescence were performed and captured using ImageQuant LAS 4000 (GE healthcare Life Sciences, Piscataway, NJ, USA) and band intensity was measure both with ImageQuant™ TL (GE Healthcare Life Sciences) 2. […]
(§5) (also on this page, place not known: PI3Kδ -dependent MEK1/2 - B -cell previously 1. whole -cell SDS -loading SDS -PAGE HRP -conjugated (G E A B Val828 Trp760 Thr750 Met752 Tyr813 affinity pocket specificity pocket hinge Glu826 CAL-101 X-370) […]
(§6) (1 picture or pasted object on this page, not shown here)

SU-DHL-6 cells = assay: Signaling by Western blot
Protocol: as §1, §2, §3, §4, §5, §6

Raji MEK DD cells [1] = assay: Erk1/2 phosphorylation in Raji cells expressing MEK DD (Western blot); conditions: 1 h
Protocol: as §2, with “(D-F) Inhibition of Erk1/2 phosphorylation was required for the anti-proliferative activity of X-370. (D) Raji cells ectopically expressing a constitutively activated phospho-mimic MEK1 mutant (MEK1 S202D/S204D or MEK DD) were incubated with X-370 or AZD6244 for 1 h and then subjected to Western blot.” left out

Raji MEK DD cells [2] = assay: Proliferation of Raji MEK DD cells (CCK-8); conditions: Raji MEK DD; 1 μM, 72 h, CCK-8
Protocol: as §2, with “(C) X-370 disrupted the association between PDK1 and MEK1/2.” left out, “WCL: whole cell lysate. (D-F) Inhibition of Erk1/2 phosphorylation was required for the anti-proliferative activity of X-370. (D) Raji cells ectopically expressing a constitutively activated phospho-mimic MEK1 mutant (MEK1 S202D/S204D or MEK DD) were incubated with X-370 or AZD6244 for 1 h and then subjected to Western blot.” left out
luciferase. Raji cells expressing MEK DD or luciferase were incubated with 1 μM AZD6244 or DMSO control respectively for 72 h, and then cell viability were assessed by CCK-8 reagent. […]

[3] = test system: Raji cells expressing luciferase; assay: Viability of Raji cells expressing luciferase (CCK-8); conditions: 1 μM, 72 h
Protocol: Cell viability was assessed using Cell Counting Kit (CCK-8, Dojindo, Japan) following the manufacturer's protocol and OD values were measured with a Spectramax M5 plate reader (Molecular Devices, Sunnyvale, CA)[45].
Figure S6: CAL-101 inhibited both Akt and Erk1/2 signaling in Raji and SU-DHL -6 cells. Raji and SU-DHL-6 cells were incubated with CAL-101 for an hour and then collected to perform Western blot, the […]
luciferase. Raji cells expressing MEK DD or luciferase were incubated with 1 μM AZD6244 or DMSO control respectively for 72 h, and then cell viability were assessed by CCK-8 reagent. NS indicated no significance. Data were show as mean + SD of three independent experiments. […]

Rh30-Myr-p110δ cells = assay: Akt phosphorylation in isogenic Rh30-Myr-p110 cells (Western blot); conditions: panel of isogenic Rh30-Myr-p110α/β/γ/δ cells, 1 h
Text: To assess the selectivity of X-370 in the context of an isogenic cellular background, we generated a panel of Rh30 human rhabdomyosarcoma cell lines each of which stably expresses a single myristoylated (Myr)-epitope tagged p110 human class I PI3K catalytic subunit, termed as Rh30-Myr-p110α, Rh30-Myr-p110β, Rh30-Myr-p110γ or Rh30-Myr-p110δ. In these cells, endogenous PI3K is not activated under serum-free culture conditions, whereas the ectopically expressed p110 isoforms are membrane-anchored and constitutively active due to myristoylation at N-terminal. Utilizing this cell panel, isoform-specific PI3K activity can be determined for any given inhibitor[25]. These cells were treated with X-370 and phosphorylated Akt was detected as the readout of PI3K activity. X-370 inhibited phosphorylation of Akt at both Thr308 and Ser473 in a dose-dependent manner in four tested cell lines (Figure 2A). […] Similar property was also observed in CAL-101 (Figure S2).
Cell lysates were probed with indicated antibodies. The IC50 values were calculated based on relative band intensity measured with ImageQuant™ TL (GE Healthcare Life Sciences, Piscataway, NJ) (B). Data shown are mean values from three independent experiments. (C, D, E, F) X-370 blocked stimuli-triggered PI3Kδ activation. MEF cells and THP-1 were starved in serum-free medium for 12 h or 4 h respectively and X-370 were added for an additional 1 h treatment following stimulation of IGF-1 at 100 ng/ml for MEF cells (C), LPA at 10 μM for MEF cells (D), MCP-1 at 100ng/ml for THP-1 (E) and M-CSF at 50 ng/ml for THP-1 (F). Similar results were derived from 3 independent experiments. TEXT PRINTED IN THE PICTURE: (B) X-370: IC50 (μM) in Rh30-Myr-p110s, Akt pT308, PI3Kα: 0.68; IC50 (μM) in Rh30-Myr-p110s, Akt pT308, PI3Kβ: 0.4; IC50 (μM) in Rh30-Myr-p110s, Akt pT308, PI3Kγ: 0.46; IC50 (μM) in Rh30-Myr-p110s, Akt pT308, PI3Kδ: 0.032; IC50 (μM) in Rh30-Myr-p110s, Akt pS473, PI3Kα: 0.53; IC50 (μM) in Rh30-Myr-p110s, Akt pS473, PI3Kβ: 0.29; IC50 (μM) in Rh30-Myr-p110s, Akt pS473, PI3Kγ: 0.23; IC50 (μM) in Rh30-Myr-p110s, Akt pS473, PI3Kδ: 0.02 DOUBTS OF THE COPYIST ABOUT THIS PICTURE: Panel B prints no substance label in the table itself; the label X-370 is taken from the other panels of the same picture, where it is the only substance printed. […]
as §3, §4, §5
(1 picture or pasted object on this page, not shown here) […]
in serum-free medium for 12 h and then incubated with serially diluted CAL -101 for an additional 1 h.
Cell lysates were probed with indicated antibodies. The IC50 values were calculated based on relative band intensity measured with ImageQuant™ TL (GE Healthcare Life Sciences, Piscataway, NJ). Data shown are mean values from three independent experiments.
Table S1: Inhibitory activity of X-370 against protein kinases […]
kinome at 10 μM. The relative kianse activity left in the presence of 10 μM were shown (Mi llipore […]
Kinase activity (% of control) Kinase activity (% of control) Kinase activity (% of control) […]
CDK1/cyclinB 97 Lck activated 89 Ret 125 […]

| SMILES | phosphorylated Erk1/2, panel of pathway inhibitors (Raji cells; Raji (Figure 5B)) | phosphorylated Erk1/2, panel of pathway inhibitors (SU-DHL-6 cells; SU-DHL-6 (Figure 5B)) | Erk1/2 phosphorylation (Raji MEK DD cells [1]) | antiproliferative activity alone (Raji MEK DD cells [2]) | antiproliferative activity alone [3] | selectivity against PI3Kδ-mediated signaling at cellular level (Rh30-Myr-p110δ cells) | phosphorylation of Akt and Erk1/2 (Raji cells; Raji, 1 h) | phosphorylation of Akt and Erk1/2 (SU-DHL-6 cells; SU-DHL-6, 1 h) |
| --- | --- | --- | --- | --- | --- | --- | --- | --- |
| Cn1cnc2c(F)c(Nc3ccc(Br)cc3Cl)c(C(=O)NOCCO)cc21 [AZD6244] | down-regulated | down-regulated | abolished | little antiproliferative activity | little antiproliferative activity | – | – | – |
| CC[C@H](Nc1ncnc2[nH]cnc12)c1nc2cccc(F)c2c(=O)n1-c1ccccc1 [CAL-101, idelalisib, reference compound] | – | – | – | – | – | highly selective | downregulated at low nanomolar concentrations | downregulated at low nanomolar concentrations |
